{
  "source": "paper PMC7407272",
  "about": "“Induction of Lysosome Membrane Permeabilization as a Therapeutic Strategy to Target Pancreatic Cancer Stem Cells” (Cancers, 2020)",
  "test_in_all_cases": "KINOMEscan",
  "format_in_all_cases": "binding",
  "details_in_all_cases": "read-out: % Ctrl",
  "key": {"[1]": {"target": "T1, ABL1(F317L)-nonP (Homo sapiens, UniProt P00519, F317L)", "T1 construct": "purchased DiscoveRx KINOMEscan"}, "[2]": {"target": "T2, ABL1-P (Homo sapiens, UniProt P00519)", "T2 construct": "purchased DiscoveRx KINOMEscan"}, "[3]": {"target": "T3, ACVR1 (Homo sapiens, UniProt Q04771)", "T3 construct": "purchased DiscoveRx KINOMEscan"}, "[4]": {"target": "T4, ADCK3 (Homo sapiens, UniProt Q8NI60)", "T4 construct": "purchased DiscoveRx KINOMEscan", "T4 sequence (Q8NI60 163-647)": "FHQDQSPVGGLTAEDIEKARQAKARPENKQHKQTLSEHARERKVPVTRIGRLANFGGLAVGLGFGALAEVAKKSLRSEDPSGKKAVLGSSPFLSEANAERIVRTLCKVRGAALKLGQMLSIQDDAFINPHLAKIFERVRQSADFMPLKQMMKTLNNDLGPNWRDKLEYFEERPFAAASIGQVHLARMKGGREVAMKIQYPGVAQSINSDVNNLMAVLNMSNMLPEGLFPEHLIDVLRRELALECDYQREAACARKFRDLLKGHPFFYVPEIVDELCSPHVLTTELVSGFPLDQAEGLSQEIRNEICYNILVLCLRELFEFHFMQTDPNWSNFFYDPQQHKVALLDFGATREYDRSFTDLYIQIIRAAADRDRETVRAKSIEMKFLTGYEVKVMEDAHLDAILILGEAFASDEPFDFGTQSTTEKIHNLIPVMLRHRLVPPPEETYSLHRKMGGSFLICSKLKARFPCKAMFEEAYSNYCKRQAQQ"}, "[5]": {"target": "T5, PIM2 (Homo sapiens, UniProt Q9P1W9)", "T5 construct": "purchased DiscoveRx KINOMEscan"}, "[6]": {"target": "T6, AURKB (Homo sapiens, UniProt Q96GD4)", "T6 construct": "purchased DiscoveRx KINOMEscan"}, "[7]": {"target": "T7, PLK2 (Homo sapiens, UniProt Q9NYY3)", "T7 construct": "purchased DiscoveRx KINOMEscan"}, "[8]": {"target": "T8, BMPR1B (Homo sapiens, UniProt O00238)", "T8 construct": "purchased DiscoveRx KINOMEscan", "T8 sequence (O00238 14-502)": "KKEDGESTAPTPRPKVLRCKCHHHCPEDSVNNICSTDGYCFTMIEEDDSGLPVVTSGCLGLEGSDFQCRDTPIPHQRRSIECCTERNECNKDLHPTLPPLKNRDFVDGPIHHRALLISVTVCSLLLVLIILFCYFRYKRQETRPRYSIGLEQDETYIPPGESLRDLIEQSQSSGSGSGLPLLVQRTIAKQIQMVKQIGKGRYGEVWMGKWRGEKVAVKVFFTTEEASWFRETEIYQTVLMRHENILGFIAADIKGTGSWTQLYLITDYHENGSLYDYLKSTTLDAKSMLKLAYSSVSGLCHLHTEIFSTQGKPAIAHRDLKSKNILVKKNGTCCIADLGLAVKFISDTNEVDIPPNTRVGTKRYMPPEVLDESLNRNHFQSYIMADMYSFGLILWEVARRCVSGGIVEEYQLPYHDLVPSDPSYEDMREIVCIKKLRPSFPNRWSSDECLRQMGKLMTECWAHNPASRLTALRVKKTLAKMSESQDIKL"}, "[9]": {"target": "T9, BRSK1 (Homo sapiens, UniProt Q8TDC3)", "T9 construct": "purchased DiscoveRx KINOMEscan"}, "[10]": {"target": "T10, KIT(V559D) (Homo sapiens, UniProt P10721, V559D)", "T10 construct": "purchased DiscoveRx KINOMEscan", "T10 sequence (P10721 26-976 V559D)": "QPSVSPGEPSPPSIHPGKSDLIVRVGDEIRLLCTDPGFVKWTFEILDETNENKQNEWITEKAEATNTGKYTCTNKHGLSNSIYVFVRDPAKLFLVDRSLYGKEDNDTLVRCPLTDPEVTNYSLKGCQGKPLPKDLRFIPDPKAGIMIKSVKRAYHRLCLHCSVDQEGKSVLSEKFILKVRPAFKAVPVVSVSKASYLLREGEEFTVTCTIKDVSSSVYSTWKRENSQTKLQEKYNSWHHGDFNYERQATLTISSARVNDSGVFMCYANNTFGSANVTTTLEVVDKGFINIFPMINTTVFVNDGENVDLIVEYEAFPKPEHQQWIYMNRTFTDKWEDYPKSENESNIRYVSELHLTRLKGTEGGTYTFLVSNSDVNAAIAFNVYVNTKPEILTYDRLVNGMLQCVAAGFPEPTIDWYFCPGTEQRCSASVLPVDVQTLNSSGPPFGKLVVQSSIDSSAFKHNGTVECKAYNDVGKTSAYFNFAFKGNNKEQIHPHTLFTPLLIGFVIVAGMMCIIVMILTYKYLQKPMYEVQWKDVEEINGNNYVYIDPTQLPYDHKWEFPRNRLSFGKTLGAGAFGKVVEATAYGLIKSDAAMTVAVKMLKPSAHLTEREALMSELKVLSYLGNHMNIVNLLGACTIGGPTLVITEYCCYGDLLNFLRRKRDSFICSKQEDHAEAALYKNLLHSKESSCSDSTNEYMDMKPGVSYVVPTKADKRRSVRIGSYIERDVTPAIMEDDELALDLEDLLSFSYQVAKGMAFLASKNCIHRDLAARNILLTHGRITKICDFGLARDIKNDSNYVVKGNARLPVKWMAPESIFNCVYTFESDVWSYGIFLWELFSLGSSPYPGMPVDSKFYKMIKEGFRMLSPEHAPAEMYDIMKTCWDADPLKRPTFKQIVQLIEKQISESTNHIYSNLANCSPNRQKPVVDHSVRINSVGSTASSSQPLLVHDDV"}, "[11]": {"target": "T11, RET(V804L) (Homo sapiens, UniProt P07949, V804L)", "T11 construct": "purchased DiscoveRx KINOMEscan"}, "[12]": {"target": "T12, RET(V804M) (Homo sapiens, UniProt P07949, V804M)", "T12 construct": "purchased DiscoveRx KINOMEscan"}, "[13]": {"target": "T13, CDK3 (Homo sapiens, UniProt Q00526)", "T13 construct": "purchased DiscoveRx KINOMEscan"}, "[14]": {"target": "T14, LRRK2 (Homo sapiens, UniProt Q5S007)", "T14 construct": "purchased DiscoveRx KINOMEscan"}, "[15]": {"target": "T15, CDK7 (Homo sapiens, UniProt P50613)", "T15 construct": "purchased DiscoveRx KINOMEscan"}, "[16]": {"target": "T16, SBK1 (Homo sapiens, UniProt Q52WX2)", "T16 construct": "purchased DiscoveRx KINOMEscan"}, "[17]": {"target": "T17, MARK3 (Homo sapiens, UniProt P27448)", "T17 construct": "purchased DiscoveRx KINOMEscan"}, "[18]": {"target": "T18, MEK1 (Homo sapiens, UniProt Q02750)", "T18 construct": "purchased DiscoveRx KINOMEscan"}, "[19]": {"target": "T19, SRMS (Homo sapiens, UniProt Q9H3Y6)", "T19 construct": "purchased DiscoveRx KINOMEscan"}, "[20]": {"target": "T20, MEK6 (Homo sapiens, UniProt P52564)", "T20 construct": "purchased DiscoveRx KINOMEscan"}, "[21]": {"target": "T21, MELK (Homo sapiens, UniProt Q14680)", "T21 construct": "purchased DiscoveRx KINOMEscan"}, "[22]": {"target": "T22, SRPK3 (Homo sapiens, UniProt Q9UPE1)", "T22 construct": "purchased DiscoveRx KINOMEscan"}, "[23]": {"target": "T23, DCAMKL2 (Homo sapiens, UniProt Q8N568)", "T23 construct": "purchased DiscoveRx KINOMEscan"}, "[24]": {"target": "T24, MINK (Homo sapiens, UniProt Q8N4C8)", "T24 construct": "purchased DiscoveRx KINOMEscan"}, "[25]": {"target": "T25, MKNK2 (Homo sapiens, UniProt Q9HBH9)", "T25 construct": "purchased DiscoveRx KINOMEscan"}, "[26]": {"target": "T26, MRCKA (Homo sapiens, UniProt Q5VT25)", "T26 construct": "purchased DiscoveRx KINOMEscan"}, "[27]": {"target": "T27, TGFBR1 (Homo sapiens, UniProt P36897)", "T27 construct": "purchased DiscoveRx KINOMEscan"}, "[28]": {"target": "T28, TIE1 (Homo sapiens, UniProt P35590)", "T28 construct": "purchased DiscoveRx KINOMEscan"}, "[29]": {"target": "T29, EGFR (Homo sapiens, UniProt P00533)", "T29 construct": "purchased DiscoveRx KINOMEscan", "T29 sequence (P00533 25-1210)": "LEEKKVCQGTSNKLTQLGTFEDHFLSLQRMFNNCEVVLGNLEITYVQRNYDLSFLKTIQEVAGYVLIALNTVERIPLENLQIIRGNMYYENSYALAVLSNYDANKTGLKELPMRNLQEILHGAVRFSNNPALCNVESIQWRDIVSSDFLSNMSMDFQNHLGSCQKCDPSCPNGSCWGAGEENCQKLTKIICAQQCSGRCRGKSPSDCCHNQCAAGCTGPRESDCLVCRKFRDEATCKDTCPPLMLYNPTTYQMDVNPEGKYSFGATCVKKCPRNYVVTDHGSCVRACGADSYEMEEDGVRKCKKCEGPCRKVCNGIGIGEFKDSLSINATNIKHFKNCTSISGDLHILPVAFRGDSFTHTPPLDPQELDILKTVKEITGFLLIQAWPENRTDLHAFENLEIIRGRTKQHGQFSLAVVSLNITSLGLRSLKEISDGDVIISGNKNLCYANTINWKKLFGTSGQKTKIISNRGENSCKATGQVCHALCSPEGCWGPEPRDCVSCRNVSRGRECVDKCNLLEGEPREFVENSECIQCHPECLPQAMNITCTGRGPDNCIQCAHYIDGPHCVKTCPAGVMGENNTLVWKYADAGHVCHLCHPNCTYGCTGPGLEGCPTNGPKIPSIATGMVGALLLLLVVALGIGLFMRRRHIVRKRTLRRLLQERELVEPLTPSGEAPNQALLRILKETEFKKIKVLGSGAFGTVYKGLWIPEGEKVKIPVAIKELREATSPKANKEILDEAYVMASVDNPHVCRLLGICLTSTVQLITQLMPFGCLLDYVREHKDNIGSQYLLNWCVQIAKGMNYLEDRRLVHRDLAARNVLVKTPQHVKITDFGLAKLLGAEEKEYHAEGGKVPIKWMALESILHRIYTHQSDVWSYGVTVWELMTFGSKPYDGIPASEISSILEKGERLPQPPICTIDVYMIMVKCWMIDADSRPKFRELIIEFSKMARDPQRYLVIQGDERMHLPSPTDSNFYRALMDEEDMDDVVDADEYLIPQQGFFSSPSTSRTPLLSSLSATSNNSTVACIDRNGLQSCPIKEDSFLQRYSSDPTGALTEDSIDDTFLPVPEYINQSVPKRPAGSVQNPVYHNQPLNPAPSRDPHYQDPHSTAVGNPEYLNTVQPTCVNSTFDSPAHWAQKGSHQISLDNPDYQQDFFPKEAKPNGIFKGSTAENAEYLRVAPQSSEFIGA"}, "[30]": {"target": "T30, TSSK1B (Homo sapiens, UniProt Q9BXA7)", "T30 construct": "purchased DiscoveRx KINOMEscan"}, "[31]": {"target": "T31, EPHA2 (Homo sapiens, UniProt P29317)", "T31 construct": "purchased DiscoveRx KINOMEscan"}, "[32]": {"target": "T32, EPHA3 (Homo sapiens, UniProt P29320)", "T32 construct": "purchased DiscoveRx KINOMEscan"}, "[33]": {"target": "T33, EPHA4 (Homo sapiens, UniProt P54764)", "T33 construct": "purchased DiscoveRx KINOMEscan"}, "[34]": {"target": "T34, EPHA8 (Homo sapiens, UniProt P29322)", "T34 construct": "purchased DiscoveRx KINOMEscan", "T34 sequence (P29322 28-1005)": "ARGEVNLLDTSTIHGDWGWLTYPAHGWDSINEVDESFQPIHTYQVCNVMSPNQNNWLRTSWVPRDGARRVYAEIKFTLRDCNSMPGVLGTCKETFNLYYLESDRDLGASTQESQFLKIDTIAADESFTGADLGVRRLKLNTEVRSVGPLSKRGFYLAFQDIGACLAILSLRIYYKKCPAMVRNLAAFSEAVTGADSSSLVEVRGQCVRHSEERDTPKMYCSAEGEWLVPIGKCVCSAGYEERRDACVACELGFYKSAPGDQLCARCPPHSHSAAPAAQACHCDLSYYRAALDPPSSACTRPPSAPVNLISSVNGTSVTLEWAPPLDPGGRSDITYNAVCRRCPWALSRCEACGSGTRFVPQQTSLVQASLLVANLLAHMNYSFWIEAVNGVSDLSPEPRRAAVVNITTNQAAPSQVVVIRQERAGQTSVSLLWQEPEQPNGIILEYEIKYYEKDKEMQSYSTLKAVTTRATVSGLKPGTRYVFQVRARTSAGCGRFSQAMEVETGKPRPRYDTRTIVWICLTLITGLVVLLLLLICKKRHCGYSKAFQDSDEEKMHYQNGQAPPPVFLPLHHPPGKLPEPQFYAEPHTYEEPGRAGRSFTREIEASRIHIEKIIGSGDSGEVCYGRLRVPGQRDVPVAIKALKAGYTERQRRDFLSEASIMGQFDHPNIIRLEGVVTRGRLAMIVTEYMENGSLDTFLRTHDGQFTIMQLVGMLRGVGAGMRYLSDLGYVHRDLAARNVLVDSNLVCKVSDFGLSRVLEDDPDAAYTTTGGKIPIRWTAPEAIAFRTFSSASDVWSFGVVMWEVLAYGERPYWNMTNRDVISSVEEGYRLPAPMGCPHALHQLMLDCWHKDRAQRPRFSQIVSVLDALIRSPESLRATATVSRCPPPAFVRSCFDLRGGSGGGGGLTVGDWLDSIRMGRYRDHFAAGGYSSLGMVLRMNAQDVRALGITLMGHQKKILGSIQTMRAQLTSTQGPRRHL"}, "[35]": {"target": "T35, ULK3 (Homo sapiens, UniProt Q6PHR2)", "T35 construct": "purchased DiscoveRx KINOMEscan"}, "[36]": {"target": "T36, EPHB1 (Homo sapiens, UniProt P54762)", "T36 construct": "purchased DiscoveRx KINOMEscan", "T36 sequence (P54762 18-984)": "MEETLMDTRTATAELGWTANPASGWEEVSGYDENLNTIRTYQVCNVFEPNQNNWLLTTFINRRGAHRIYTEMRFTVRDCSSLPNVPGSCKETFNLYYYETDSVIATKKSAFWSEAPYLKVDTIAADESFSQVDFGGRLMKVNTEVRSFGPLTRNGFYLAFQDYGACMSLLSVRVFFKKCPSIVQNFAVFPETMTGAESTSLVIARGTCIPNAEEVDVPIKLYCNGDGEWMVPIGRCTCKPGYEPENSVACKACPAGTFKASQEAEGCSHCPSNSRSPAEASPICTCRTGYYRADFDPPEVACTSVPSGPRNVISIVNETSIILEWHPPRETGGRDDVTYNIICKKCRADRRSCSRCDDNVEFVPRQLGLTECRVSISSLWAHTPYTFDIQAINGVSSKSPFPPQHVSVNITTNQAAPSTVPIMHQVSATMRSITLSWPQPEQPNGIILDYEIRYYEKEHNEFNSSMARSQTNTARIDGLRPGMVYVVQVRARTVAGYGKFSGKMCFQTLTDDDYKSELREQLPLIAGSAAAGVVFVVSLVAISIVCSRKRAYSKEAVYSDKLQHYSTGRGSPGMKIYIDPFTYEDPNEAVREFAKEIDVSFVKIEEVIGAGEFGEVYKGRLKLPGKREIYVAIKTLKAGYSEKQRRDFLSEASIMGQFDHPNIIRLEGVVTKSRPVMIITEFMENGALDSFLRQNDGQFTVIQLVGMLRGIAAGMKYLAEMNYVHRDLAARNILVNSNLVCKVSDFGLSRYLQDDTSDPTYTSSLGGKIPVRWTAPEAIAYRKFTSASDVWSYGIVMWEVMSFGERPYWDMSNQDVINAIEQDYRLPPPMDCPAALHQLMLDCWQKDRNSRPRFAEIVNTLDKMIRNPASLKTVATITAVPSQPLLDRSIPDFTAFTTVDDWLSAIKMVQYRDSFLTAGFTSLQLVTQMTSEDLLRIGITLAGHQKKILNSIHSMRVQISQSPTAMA"}, "[37]": {"target": "T37, NEK9 (Homo sapiens, UniProt Q8TD19)", "T37 construct": "purchased DiscoveRx KINOMEscan"}, "[38]": {"target": "T38, ERBB3 (Homo sapiens, UniProt P21860)", "T38 construct": "purchased DiscoveRx KINOMEscan"}, "[39]": {"target": "T39, YANK2 (Homo sapiens, UniProt Q9NY57)", "T39 construct": "purchased DiscoveRx KINOMEscan"}, "[40]": {"target": "T40, PAK4 (Homo sapiens, UniProt O96013)", "T40 construct": "purchased DiscoveRx KINOMEscan"}},
  "data": [
    {"smiles": "CN1CCC(CNc2ccc3ncc(C(=O)Nc4cccc(OC(F)(F)F)c4)n3n2)CC1", "note": "[Cpd 2]", "values": [
      {"measurement": "remaining binding at 1 µM", "setting": "[1]", "value": 66, "unit": "%"},
      {"measurement": "remaining binding at 1 µM", "setting": "[2]", "value": 95, "unit": "%"},
      {"measurement": "remaining binding at 1 µM", "setting": "[3]", "value": 99, "unit": "%"},
      {"measurement": "remaining binding at 1 µM", "setting": "[4]", "value": 100, "unit": "%"},
      {"measurement": "remaining binding at 1 µM", "setting": "[5]", "value": 72, "unit": "%"},
      {"measurement": "remaining binding at 1 µM", "setting": "[6]", "value": 97, "unit": "%"},
      {"measurement": "remaining binding at 1 µM", "setting": "[7]", "value": 91, "unit": "%"},
      {"measurement": "remaining binding at 1 µM", "setting": "[8]", "value": 99, "unit": "%"},
      {"measurement": "remaining binding at 1 µM", "setting": "[9]", "value": 100, "unit": "%"},
      {"measurement": "remaining binding at 1 µM", "setting": "[10]", "value": 95, "unit": "%"},
      {"measurement": "remaining binding at 1 µM", "setting": "[11]", "value": 100, "unit": "%"},
      {"measurement": "remaining binding at 1 µM", "setting": "[12]", "value": 97, "unit": "%"},
      {"measurement": "remaining binding at 1 µM", "setting": "[13]", "value": 85, "unit": "%"},
      {"measurement": "remaining binding at 1 µM", "setting": "[14]", "value": 68, "unit": "%"},
      {"measurement": "remaining binding at 1 µM", "setting": "[15]", "value": 70, "unit": "%"},
      {"measurement": "remaining binding at 1 µM", "setting": "[16]", "value": 100, "unit": "%"},
      {"measurement": "remaining binding at 1 µM", "setting": "[17]", "value": 100, "unit": "%"},
      {"measurement": "remaining binding at 1 µM", "setting": "[18]", "value": 95, "unit": "%"},
      {"measurement": "remaining binding at 1 µM", "setting": "[19]", "value": 87, "unit": "%"},
      {"measurement": "remaining binding at 1 µM", "setting": "[20]", "value": 98, "unit": "%"},
      {"measurement": "remaining binding at 1 µM", "setting": "[21]", "value": 100, "unit": "%"},
      {"measurement": "remaining binding at 1 µM", "setting": "[22]", "value": 77, "unit": "%"},
      {"measurement": "remaining binding at 1 µM", "setting": "[23]", "value": 97, "unit": "%"},
      {"measurement": "remaining binding at 1 µM", "setting": "[24]", "value": 94, "unit": "%"},
      {"measurement": "remaining binding at 1 µM", "setting": "[25]", "value": 96, "unit": "%"},
      {"measurement": "remaining binding at 1 µM", "setting": "[26]", "value": 100, "unit": "%"},
      {"measurement": "remaining binding at 1 µM", "setting": "[27]", "value": 100, "unit": "%"},
      {"measurement": "remaining binding at 1 µM", "setting": "[28]", "value": 90, "unit": "%"},
      {"measurement": "remaining binding at 1 µM", "setting": "[29]", "value": 94, "unit": "%"},
      {"measurement": "remaining binding at 1 µM", "setting": "[30]", "value": 95, "unit": "%"},
      {"measurement": "remaining binding at 1 µM", "setting": "[31]", "value": 100, "unit": "%"},
      {"measurement": "remaining binding at 1 µM", "setting": "[32]", "value": 92, "unit": "%"},
      {"measurement": "remaining binding at 1 µM", "setting": "[33]", "value": 88, "unit": "%"},
      {"measurement": "remaining binding at 1 µM", "setting": "[34]", "value": 100, "unit": "%"},
      {"measurement": "remaining binding at 1 µM", "setting": "[35]", "value": 78, "unit": "%"},
      {"measurement": "remaining binding at 1 µM", "setting": "[36]", "value": 97, "unit": "%"},
      {"measurement": "remaining binding at 1 µM", "setting": "[37]", "value": 88, "unit": "%"},
      {"measurement": "remaining binding at 1 µM", "setting": "[38]", "value": 100, "unit": "%"},
      {"measurement": "remaining binding at 1 µM", "setting": "[39]", "value": 100, "unit": "%"},
      {"measurement": "remaining binding at 1 µM", "setting": "[40]", "value": 100, "unit": "%"}
    ]}
  ]
}
